Test results from patent US20110021530A1, “PYRIDAZINE DERIVATIVES AND THEIR USE AS THERAPEUTIC AGENTS IN THE TREATMENT OF SKIN DISORDERS” (XENON PHARMACEUTICALS INC., priority 2008, published 2011).

Assays:
SCD = target: T1, SCD (Mus musculus, UniProt P13516); test: Mouse SCD IC50 determination for compounds active in the HTS assay; format: biochemical
T1 sequence (P13516 1-355): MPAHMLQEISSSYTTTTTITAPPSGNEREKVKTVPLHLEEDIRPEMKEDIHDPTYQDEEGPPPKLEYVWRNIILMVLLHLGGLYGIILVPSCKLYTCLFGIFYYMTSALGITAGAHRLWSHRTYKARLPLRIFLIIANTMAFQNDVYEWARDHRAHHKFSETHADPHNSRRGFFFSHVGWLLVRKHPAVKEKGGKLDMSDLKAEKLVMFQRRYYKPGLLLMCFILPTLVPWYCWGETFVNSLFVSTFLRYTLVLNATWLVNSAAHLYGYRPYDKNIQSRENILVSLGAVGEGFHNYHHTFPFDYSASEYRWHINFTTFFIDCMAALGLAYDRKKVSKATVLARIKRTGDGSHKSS
Description: The compounds are analyzed with an HTS microsomal assay. The activities are defined in terms of % SCD enzyme activity remaining at the selected concentration (e.g., 10 μM) of the test compounds.

HEPG2 = HEPG2 IC50; format: cell-based; settings: Homo sapiens
[1] = target: T2, stearoyl-CoA desaturase (SCD) (Mus musculus, UniProt P13516); test: HTS microsomal assay of stearoyl-CoA desaturase inhibition using mouse liver microsomes; format: biochemical; settings: % SCD enzyme activity remaining at 10 μM test compound
T2 construct: Reactions are started by adding 2 mg of microsomal protein; from tissue; host or cells: liver microsomes of male ICR mice on a high-carbohydrate, low fat diet
T2 sequence (P13516 1-355): T1 sequence (P13516 1-355)
Description: The absence of mitochondrial contamination is enzymatically assessed.
The compounds are analyzed with an HTS microsomal assay.

melting point [°C] | IC50 (SCD) [nM] | IC50 (HEPG2) [nM] | Mouse microsome SCD activity % remaining @ 10 μM [1] [%] | SMILES
186 to 189 | – | – | – | CC(C)(C)C(O)CNC(=O)c1ccc(N2CCN(C(=O)c3cc(F)ccc3C(F)(F)F)CC2)nn1 (stereo not shown) [Example 15.30, 6-[4-(5-FLUORO-2-TRIFLUOROMETHYLBENZOYL)PIPERAZIN-1-YL]PYRIDAZINE-3-CARBOXYLIC ACID (2-HYDROXY-3,3-DIMETHYLBUTYL)AMIDE]
181 to 183 | – | – | – | CC(O)(C(=O)N1CCN(c2ccc(C(=O)NCCC3CC3)nn2)CC1)C(F)(F)F (stereo not shown) [Example 14.8, 6-[4-(3,3,3-TRIFLUORO-2-HYDROXY-2-METHYLPROPIONYL)PIPERAZIN-1-YL]PYRIDAZINE-3-CARBOXYLIC ACID (2-CYCLOPROPYLETHYL)AMIDE]
179 to 181 | – | – | – | O=C(NCc1ccccn1)c1ccc(N2CCN(C(=O)c3ccccc3C(F)(F)F)CC2)nn1 [Example 30, 6-[4-(2-TRIFLUOROMETHYLBENZOYL)PIPERAZIN-1-YL]PYRIDAZINE-3-CARBOXYLIC ACID (PYRIDIN-2-YL-METHYL)AMIDE]
148 to 151 | – | – | – | CC(C)CCNC(=O)c1ccc(N2CCN(C(=O)c3cc(Cl)ccc3C(F)(F)F)CC2)nn1 [Example 3.7, 6-[4-(5-CHLORO-2-TRIFLUOROMETHYLBENZOYL)PIPERAZIN-1-YL]PYRIDAZINE-3-CARBOXYLIC ACID (3-METHYLBUTYL)AMIDE]
43 to 45 | – | – | – | CC(C)CCCNC(=O)c1ccc(N2CCN(C(=O)c3ccccc3C(F)(F)F)CC2)nn1 [Example 15.33, 6-[4-(2-TRIFLUOROMETHYLBENZOYL)PIPERAZIN-1-YL]PYRIDAZINE-3-CARBOXYLIC ACID (4-METHYLPENTYL)AMIDE]
106 to 108 | 90 | 40 | 12 | O=C(NCCC1CC1)c1ccc(N2CCN(Cc3ccccc3C(F)(F)F)CC2)nn1 [6-[4-(2-TRIFLUOROMETHYLBENZYL)PIPERAZIN-1-YL]PYRIDAZINE-3-CARBOXYLIC ACID (2-CYCLOPROPYLETHYL)AMIDE]
236 to 240 | – | – | – | CC(C)(C)C(O)CNC(=O)c1ccc(N2CCN(C(=O)c3ccccc3C(F)(F)F)CC2)nn1 (stereo not shown) [Example 15.29, 6-[4-(2-TRIFLUOROMETHYLBENZOYL)PIPERAZIN-1-YL]PYRIDAZINE-3-CARBOXYLIC ACID (2-HYDROXY-3,3-DIMETHYLBUTYL)AMIDE]
117 to 119 | – | – | – | O=C(NCC(O)c1cccc(F)c1)c1ccc(N2CCN(C(=O)c3ccccc3C(F)(F)F)CC2)nn1 (stereo not shown) [Example 27.4, 6-[4-(2-TRIFLUOROMETHYLBENZOYL)PIPERAZIN-1-YL]PYRIDAZINE-3-CARBOXYLIC ACID [2-(3-FLUOROPHENYL)-2-HYDROXYETHYL]AMIDE]
117 to 120 | – | – | – | O=C(NCCC1CC1)c1ccc(N2CCN(C(=S)c3ccccc3C(F)(F)F)CC2)nn1 [Example 31, 6-[4-(2-TRIFLUOROMETHYLTHIOBENZOYL)PIPERAZIN-1-YL]-PYRIDAZINE-3-CARBOXYLIC ACID (2-CYCLOPROPYLETHYL)AMIDE]
> 300 | – | – | – | O=C(NCCC1CC1)Nc1ccc(N2CCN(C(=O)c3ccccc3C(F)(F)F)CC2)nn1
162 to 164 | – | – | – | O=C(NCCc1ccc2c(c1)OCO2)c1ccc(N2CCN(C(=O)c3ccccc3C(F)(F)F)CC2)nn1 [Example 30.1, 6-[4-(2-TRIFLUOROMETHYLBENZOYL)PIPERAZIN-1-YL]PYRIDAZINE-3-CARBOXYLIC ACID (2-BENZO[1,3]DIOXOL-5-YL-ETHYL)AMIDE]
– | 70 | 30 | 6 | O=C(NCc1ccc(F)cc1)Nc1ccc(N2CCN(C(=O)c3ccccc3C(F)(F)F)CC2)nn1 [1-(4-FLUOROBENZYL)-3-{6-[4-(2-TRIFLUOROMETHYLBENZOYL)PIPERAZIN-1-YL]-PYRIDAZIN-3-YL}UREA]
151 to 154 | – | – | – | O=C(NCCc1ccccn1)c1ccc(N2CCN(C(=O)c3ccccc3C(F)(F)F)CC2)nn1 [Example 28.2, 6-[4-(2-TRIFLUOROMETHYLBENZOYL)PIPERAZIN-1-YL]PYRIDAZINE-3-CARBOXYLIC ACID (2-PYRIDIN-2-YLETHYL)AMIDE]
– | 20 | 20 | 3 | O=C(NCCC1CC1)c1ccc(N2CCN(Cc3cc(F)ccc3C(F)(F)F)CC2)nn1 [6-[4-(5-FLUORO-2-TRIFLUOROMETHYLBENZYL)PIPERAZIN-1-YL]PYRIDAZINE-3-CARBOXYLIC ACID (2-CYCLOPROPYLETHYL)AMIDE]
– | 80 | 120 | 8 | CC(C)CCNC(=O)c1ccc(N2CCN(C(=O)c3ccccc3[N+](=O)[O-])CC2)nn1 [6-[4-(2-NITROBENZOYL)PIPERAZIN-1-YL]PYRIDAZINE-3-CARBOXYLIC ACID (3-METHYLBUTYL)AMIDE]
– | 480 | 120 | 8 | O=C(NCCC1CC1)c1ccc(N2CCN(C(=O)CC(O)(C(F)(F)F)C(F)(F)F)CC2)nn1 [6-[4-(4,4,4-TRIFLUORO-3-HYDROXY-3-TRIFLUOROMETHYLBUTYRYL)PIPERAZIN-1-YL]PYRIDAZINE-3-CARBOXYLIC ACID (2-CYCLOPROPYLETHYL)AMIDE]
– | 20 | 10 | 12 | O=C(NCCC1CC1)c1ccc(N2CCN(Cc3ccc(F)cc3C(F)(F)F)CC2)nn1 [6-[4-(4-FLUORO-2-TRIFLUOROMETHYLBENZYL)-PIPERAZIN-1-YL]PYRIDAZINE-3-CARBOXYLIC ACID (2-CYCLOPROPYLETHYL)AMIDE]
– | 40 | 50 | 8 | O=C(NCc1ccccc1)Nc1ccc(N2CCN(C(=O)c3ccccc3C(F)(F)F)CC2)nn1 [1-BENZYL-3-{6-[4-(2-TRIFLUOROMETHYLBENZOYL)PIPERAZIN-1-YL]PYRIDAZIN-3-YL}UREA]
179 to 181 | 20 | 20 | 5 | O=C(NCCc1ccc(F)cc1F)c1ccc(N2CCN(C(=O)c3ccccc3C(F)(F)F)CC2)nn1 [6-[4-(2-TRIFLUOROMETHYLBENZOYL)PIPERAZIN-1-YL]PYRIDAZINE-3-CARBOXYLIC ACID [2-(2,4-DIFLUOROPHENYL)ETHYL]AMIDE]
– | 1370 | 350 | 14 | O=C(NCCCc1ccc(F)cc1)Nc1ccc(N2CCN(C(=O)c3ccccc3C(F)(F)F)CC2)nn1 [1-[3-(4-Fluorophenyl)propyl]-3-{6-[4-(2-trifluoromethylbenzoyl)piperazin-1-yl]pyridazin-3-yl}urea]
– | 350 | 440 | 15 | CC(C)CCNC(=O)c1ccc(N2CCN(C(=O)c3cnn(C)c3C(F)(F)F)CC2)nn1 [6-[4-(1-METHYL-5-TRIFLUOROMETHYL-1H-PYRAZOLE-4-CARBONYL)PIPERAZIN-1-YL]-PYRIDAZINE-3-CARBOXYLIC ACID (3-METHYLBUTYL)AMIDE]
– | 260 | 290 | 7 | O=C(NCCC1CC1)c1ccc(N2CCN(C(=O)c3ccoc3C(F)(F)F)CC2)nn1 [6-[4-(2-TRIFLUOROMETHYLFURAN-3-CARBONYL)PIPERAZIN-1-YL]PYRIDAZINE-3-CARBOXYLIC ACID (2-CYCLOPROPYLETHYL)AMIDE]
– | 450 | 640 | 23 | CC(C)CCNC(=O)c1ccc(N2CCN(C(=O)c3ccccc3N)CC2)nn1 [6-[4-(2-AMINOBENZOYL)PIPERAZIN-1-YL]PYRIDAZINE-3-CARBOXYLIC ACID (3-METHYLBUTYL)AMIDE]
